In patent US20260022118A1, “HETEROCYCLIC COMPOUNDS AS NRAS INHIBITORS” (Board of Regents, The University of Texas System, priority 2023, published 2026):
Like-named read-outs stand apart in the source and are kept apart here.

Key:
[1] = tested on: THP-1 cells expressing G12D (NRAS G12D); experiment: Inhibition of NRAS G12D-mediated phosphorylation of ERK (AlphaLISA p-ERK1/2) in THP-1 cells; assay type: cell-based; conditions: 2 hours incubation, HBSS with 0% or 10% FBS, p-ERK1/2 (Thr202/Tyr204) AlphaLISA, read-out: pERK THP-1 IC50
Procedure, shortened: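 THP-1 cells expressing NRAS G12D, seeded in HBSS with 0% or 10% FBS, were exposed to test compound (1% DMSO final) for 2 h. p-ERK1/2 (Thr202/Tyr204) read by AlphaLISA SureFire Ultra. IC50 from curves normalized to no-inhibitor (100%) and 1 μM trametinib (0%) controls.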

[2] = biological target: NRAS G12D C118S (Homo sapiens (Human), UniProt P01111, C118S/G12D); experiment: NRas G12D Surface Plasmon Resonance (SPR) binding assay; conditions: Avi-tagged biotinylated NRAS G12D C118S on streptavidin chip, 25° C., 1:1 kinetic or steady-state fit
Chain of NRAS G12D C118S (P01111 whole entry G12D/C118S): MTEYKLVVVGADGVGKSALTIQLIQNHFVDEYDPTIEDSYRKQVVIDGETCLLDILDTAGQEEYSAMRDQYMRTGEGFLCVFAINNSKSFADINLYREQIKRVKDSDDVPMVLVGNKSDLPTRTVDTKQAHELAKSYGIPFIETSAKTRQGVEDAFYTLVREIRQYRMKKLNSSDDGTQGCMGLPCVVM
Experimental: NRas G12D Surface Plasmon Resonance (SPR) Binding Assay
This Example illustrates that exemplary compounds and salts thereof described herein bind to NRAS G12D as measured by surface plasmon resonance (SPR).
Two liters of 1.03× running buffer (1.03×HBS-P+pH 7.4, containing 0.0103 M HEPES, 0.1545 M NaCl, 0.0515% v/v Surfactant P20 (Cytiva®, BR100671); 5.15 mM MgCl2 (Invitrogen, AM9530G); 0.515 mM TCEP, pH 8.0 (GoldBio®, TCEP25)) was prepared and filter sterilized using a 0.22 μm filter. A 1-L volumetric flask was filled partway with this buffer. A 30-mL volumetric flask was used to measure 30 mL of 100% DMSO (Sigma Aldrich®, 41639-100ML) which was added to the 1-L flask. The solution in the 1-L flask was brought up to 1 L with 1.03× buffer, resulting in a 1.0× assay running buffer containing 1.0×HBS-P+, 5 mM MgCl2, […], and 3% DMSO. Remaining 1.03× buffer was used for preparation of samples and immobilization running buffer.
Samples were prepared in a standard conical-bottomed 384-well microplate by adding 2 μL 10 mM DMSO cpd stock to each well, followed by 8 μL DMSO. A control compound was selected based off of its relatively “fast” kinetics that could be fitted by 1:1 kinetic fitting, as well as by steady-state fitting. Control wells for periodic injection to assess protein activity throughout the assay were also assembled, by diluting 10 mM compound 1:30 in DMSO, then adding 20 μL to the appropriate wells, such that the final concentration of compound would be 10 μM, and the final concentration of DMSO would be 3%. A Biomek™ FXP Laboratory Automation Workstation was used to stamp 20 μL DMSO into all sample wells—minus the control wells—according to the plate map, and then serially dilute 1:3 by mixing and aspirating 10 μL, delivering into the 20 μL of DMSO in the next well, resulting in 10-point serial dilution curves. A Biotek™ Multiflo EL406 Washer Dispenser was used to deliver 80 μL of 1.03× buffer to the compound plate. The plate was mixed 10× by FX, then a final dilution was performed by stamping 18 μL from the compound plate into a 384-well deep-well plate that had also been previously filled with 102 μL 1.03× buffer via the Multiflo. The solution in the deep-well plate was mixed 10× by FX, then sealed with a 384-well microplate foil from Cytiva® (Cytiva® BR100577) and placed on an orbital shaker for 30 minutes at 1000 RPM to ensure complete mixing of the DMSO solution in the buffer. A solvent correction curve was also prepared by making a 4% DMSO solution in 1.03× buffer and diluting in 1.03× buffer such that there were eight solutions of decreasing DMSO concentrations resulting in a high DMSO concentration of 4% and a low concentration of 2% DMSO.
Immobilization running buffer was prepared in a 200-mL volume by diluting 1.03× running buffer prepared above to 1.0×. A Cytiva® Streptavidin chip (Cytiva®, 29104992) was docked into a Biacore™ S200 instrument, and the instrument was then primed three times into the immobilization running buffer. A protein stock of Avi-tagged NRAS G12D C118S was prepared in-house and biotinylated using the Bulk BirA: BirA biotin-protein ligase bulk reaction kit from Avidity (Avidity®, Bulk BirA). Upon completion of the biotinylation reaction, Amicon® ultra 0.5-mL Centrifugal Filters with a MWCO of 3 k Da (Millipore® UFC500396) were used to reduce the free biotin concentration below 0.1 μM in the protein sample over the course of eight desalting cycles, according to the manufacturer's protocol. Resulting protein concentration was not measured directly as an accurate protein concentration is not required for immobilizing protein on the chip surface; however, a theoretical yield of ≤1.5 mg/mL was estimated based off of retained volumes during the desalting process. Reagents for immobilization were prepared as instructed in the Biacore™ 5200 Control Software Immobilization Wizard, including solutions of 1 M NaCl in 50 mM NaOH, and 1 M NaCl in 50 mM NaOH and 50% isopropyl alcohol. […]

| Compound | IC50 ([1]; Homo sapiens, THP-1, 2 h) | Kd [2] | IC50 [1] |
| --- | --- | --- | --- |
| C#Cc1c(F)ccc2cc(O)cc(-c3ncc4c([C@H]5[C@@H]6CNC[C@@H]65)cn(C5CC5)c4c3F)c12 [Example 5, 4-(3-((1R,5S,6s)-3-azabicyclo[3.1.0]hexan-6-yl)-1-cyclopropyl-7-fluoro-1H-pyrrolo[3,2-c]pyridin-6-yl)-5-ethynyl-6-fluoronaphthalen-2-ol] | 0.269 µM | 0.0101 µM |  |
| C#Cc1c(F)ccc2cc(O)cc(-c3ncc4c(N5CC6CCC(C5)N6)nn(CC)c4c3F)c12 [Example 8, 4-(3-(3,8-diazabicyclo[3.2.1]octan-3-yl)-1-ethyl-7-fluoro-1H-pyrazolo[4,3-c]pyridin-6-yl)-5-ethynyl-6-fluoronaphthalen-2-ol] | 11.1 µM | 1.92 µM |  |
| C#Cc1c(F)ccc2cc(O)cc(-c3ncc4c(N5CC6CCC(C5)N6)nn(C)c4c3F)c12 [Example 13, 4-(3-(3,8-diazabicyclo[3.2.1]octan-3-yl)-7-fluoro-1-methyl-1H-pyrazolo[4,3-c]pyridin-6-yl)-5-ethynyl-6-fluoronaphthalen-2-ol] | 6.74 µM | 0.891 µM |  |
| C#Cc1c(F)ccc2cc(O)cc(-c3ncc4c(N5CC6CCC5CN6)nn(C)c4c3F)c12 (centres unmarked) [Example 26, 4-(3-(2,5-diazabicyclo[2.2.2]octan-2-yl)-7-fluoro-1-methyl-1H-pyrazolo[4,3-c]pyridin-6-yl)-5-ethynyl-6-fluoronaphthalen-2-ol] | 2.07 µM | 0.0738 µM |  |
| C#Cc1c(F)ccc2cc(O)cc(-c3ccc4c([C@H]5[C@@H]6CNC[C@@H]65)nn(C)c4c3F)c12 [Example 27, 4-(3-((1R,5S,6r)-3-azabicyclo[3.1.0]hexan-6-yl)-7-fluoro-1-methyl-1H-indazol-6-yl)-5-ethynyl-6-fluoronaphthalen-2-ol] | 9.56 µM | 3.18 µM |  |
| C#Cc1c(F)ccc2cc(O)cc(-c3ncc4c(N5CC6CC5CN6)nn(C)c4c3F)c12 (centres unmarked) [Example 28, 4-(3-(2,5-diazabicyclo[2.2.1]heptan-2-yl)-7-fluoro-1-methyl-1H-pyrazolo[4,3-c]pyridin-6-yl)-5-ethynyl-6-fluoronaphthalen-2-ol] | 11.9 µM | 1.1 µM |  |
| C#Cc1c(F)ccc2cc(O)cc(-c3ncc4c(N5C[C@@H]6CC[C@H]5CN6)nn(C)c4c3F)c12 [Example 30, 4-(3-((1S,4S)-2,5-diazabicyclo[2.2.2]octan-2-yl)-7-fluoro-1-methyl-1H-pyrazolo[4,3-c]pyridin-6-yl)-5-ethynyl-6-fluoronaphthalen-2-ol] | 1.19 µM | 0.0519 µM |  |
| C#Cc1c(F)ccc2cc(O)cc(-c3ncc4c(N5CC6CCCC(C5)N6)nn(C)c4c3F)c12 [Example 31, 4-[3-(3,9-diazabicyclo[3.3.1]nonan-3-yl)-7-fluoro-1-methyl-pyrazolo[4,3-c]pyridin-6-yl]-5-ethynyl-6-fluoro-naphthalen-2-ol] | 18.1 µM | 3.43 µM |  |
| C#Cc1c(F)ccc2cc(O)cc(-c3ncc4c(N5CC(N(C)C)C5)nn(C)c4c3F)c12 [Example 33, 4-[3-[3-(dimethylamino)azetidin-1-yl]-7-fluoro-1-methyl-pyrazolo[4,3-c]pyridin-6-yl]-5-ethynyl-6-fluoro-naphthalen-2-ol] | > 50 µM | 8.75 µM |  |
| C#Cc1c(F)ccc2cc(O)cc(-c3ncc4c(N5CC6CC(C5)N6)nn(C)c4c3F)c12 [Example 34, 4-[3-(3,6-diazabicyclo[3.1.1]heptan-3-yl)-7-fluoro-1-methyl-pyrazolo[4,3-c]pyridin-6-yl]-5-ethynyl-6-fluoro-naphthalen-2-ol] | 5.98 µM | 0.613 µM |  |
| C#Cc1c(F)ccc2cc(O)cc(-c3ncc4c(N5CC6CCCC5CN6)nn(C)c4c3F)c12 (centres unmarked) [Example 36, 4-[3-(6,8-diazabicyclo[3.2.2]nonan-6-yl)-7-fluoro-1-methyl-pyrazolo[4,3-c]pyridin-6-yl]-5-ethynyl-6-fluoro-naphthalen-2-ol] | 12.8 µM | 4.03 µM |  |
| C#Cc1c(F)ccc2cc(O)cc(-c3ncc4c(c(C)cn4C4CC5CCC4CN5)c3F)c12 (centres unmarked) [Example 39, 4-[1-(2-azabicyclo[2.2.2]octan-5-yl)-4-fluoro-3-methyl-pyrrolo[2,3-c]pyridin-5-yl]-5-ethynyl-6-fluoro-naphthalen-2-ol] | 4.82 µM | 0.435 µM |  |
| C#Cc1c(F)ccc2cc(O)cc(-c3ncc4c(C5=CC6CCC5CN6)nn(C)c4c3F)c12 (centres unmarked) [Example 42, 4-[3-(2-azabicyclo[2.2.2]oct-5-en-5-yl)-7-fluoro-1-methyl-pyrazolo[4,3-c]pyridin-6-yl]-5-ethynyl-6-fluoro-naphthalen-2-ol] | > 10 µM | 2.98 µM |  |

Continued by falling Kd [2], values first:

| IC50 ([1]; Homo sapiens, THP-1, 2 h) | Kd [2] | IC50 [1] | Compound |
| --- | --- | --- | --- |
| 18.3 µM | 3.99 µM |  | C#Cc1c(F)ccc2cc(O)cc(-c3ncc4c(c(C)cn4C4=CC5CCC4CN5)c3F)c12 (centres unmarked) [Example 38, 4-[1-(2-azabicyclo[2.2.2]oct-5-en-5-yl)-4-fluoro-3-methyl-pyrrolo[2,3-c]pyridin-5-yl]-5-ethynyl-6-fluoro-naphthalen-2-ol] |
| 13 µM | 1.84 µM |  | C#Cc1c(F)ccc2cc(O)cc(-c3ncc4c([C@H]5[C@@H]6CNC[C@@H]65)c(C)n(C)c4c3F)c12 [Example 21, 4-(3-((1R,5S,6s)-3-azabicyclo[3.1.0]hexan-6-yl)-7-fluoro-1,2-dimethyl-1H-pyrrolo[3,2-c]pyridin-6-yl)-5-ethynyl-6-fluoronaphthalen-2-ol] |
| > 10 µM | 1.13 µM |  | C#Cc1c(F)ccc2cc(O)cc(-c3ncc4c(c(C)cn4C4[C@H]5CNC[C@@H]45)c3F)c12 (stereo partly drawn) [Example 40, 4-[1-[(1R,5S)-3-azabicyclo[3.1.0]hexan-6-yl]-4-fluoro-3-methyl-pyrrolo[2,3-c]pyridin-5-yl]-5-ethynyl-6-fluoro-naphthalen-2-ol] |
| 3.1 µM | 0.965 µM |  | C#Cc1c(F)ccc2cc(O)cc(-c3c(F)cc4c([C@H]5[C@@H]6CNC[C@@H]65)cn(C)c4c3F)c12 [Example 29, 4-(3-((1R,5S,6s)-3-azabicyclo[3.1.0]hexan-6-yl)-5,7-difluoro-1-methyl-1H-indol-6-yl)-5-ethynyl-6-fluoronaphthalen-2-ol] |
| 10.7 µM | 0.824 µM |  | C#Cc1c(F)ccc2cc(O)cc(-c3ncc4c([C@H]5[C@@H]6CNC[C@@H]65)nn(C(C)C)c4c3F)c12 [Example 24, 4-(3-((1R,5S,6r)-3-azabicyclo[3.1.0]hexan-6-yl)-7-fluoro-1-isopropyl-1H-pyrazolo[4,3-c]pyridin-6-yl)-5-ethynyl-6-fluoronaphthalen-2-ol] |
|  | 0.201 µM | 6.74 µM | C#Cc1c(F)ccc2cc(O)cc(-c3ncc4c(C5CC6CCC5CN6)nn(C)c4c3F)c12 (centres unmarked) [Example 44, 4-[3-(2-azabicyclo[2.2.2]octan-5-yl)-7-fluoro-1-methyl-pyrazolo[4,3-c]pyridin-6-yl]-5-ethynyl-6-fluoro-naphthalen-2-ol] |
